According to the supplement of paper PMC11208160:

Assay: recombinant UMI read abundance after kanamycin selection (control-corrected) (log10(CPM+1)); higher = more efficient recombination; extreme values may be limits of the assay; sequences stand for … in AGTGCAGAGAAAATCGGCCAGTTTTCTCTGCCTGCAGTCCGCATGCCGTGGGACCCCTTGGGTTCTAACCTGTTGCCTAGATTTATGCAGCGGACTGCCTTTCTCCCAAAGTGATAAACCGG…AGGTTGGTTTCACT; site = the 11-nt donor
Summary of the method: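 Two replicates each of selected and unselected plating were used in this pooled Escherichia coli screen of donor and donor-binding-loop pairs for the IS621 bridge recombinase. Selection was with IPTG (0.07 mM) and kanamycin. Counts of recombinant UMIs, amplified across the donor–target junction, were converted to CPM, averaged, scaled by control-derived factors and reported as log10(CPM+1).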
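Also: IS621 bridge recombinase in Escherichia coli cells against a fixed T5 target plasmid.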

Sequence	recombinant UMI read abundance (log10)
CGGTTCCCATGGACCGGTTTTCCCGGTAATCCGTATTTGTG (site TGGTTCCCTCA)	0.0119
CGGTTGGCATGGACCGGTTTTCCCGGTAATCCGTATTTGCT (site CGATTGGCTAG)	0.3
CGGTTGGCATGGACCGGTTTTCCCGGTAATCCGTATTTGCT (site CGCTTGGCTAG)	0.00834
CGGTTGGCATGGACCGGTTTTCCCGGTAATCCGTATTTGCT (site CGGTTGGCTAG)	1.08
CGGTTGGCATGGACCGGTTTTCCCGGTAATCCGTATTTGCT (site CGTTTGGCTAG)	0
CGTAAGCCATGGACCGGTTTTCCCGGTAATCCGTATTTGTT (site CGGAATCCTAA)	0
CGTAAGCCATGGACCGGTTTTCCCGGTAATCCGTATTTGTT (site CGTAAGCCTAA)	0.666
CGTAATCCATGGACCGGTTTTCCCGGTAATCCGTATTTGTT (site CGAAATCCTAA)	0.00285
CGTAATCCATGGACCGGTTTTCCCGGTAATCCGTATTTGTT (site CGCAATCCTAA)	0
CGTAATCCATGGACCGGTTTTCCCGGTAATCCGTATTTGTT (site CGGAATCCTAA)	0.00347
CGTAATCCATGGACCGGTTTTCCCGGTAATCCGTATTTGTT (site CGTAATCCTAA)	0
CGTACATCATGGACCGGTTTTCCCGGTAATCCGTATTTGCT (site CGAACATCTAG)	0.623
CGTACATCATGGACCGGTTTTCCCGGTAATCCGTATTTGCT (site CGATCATCTAG)	0
CGTACATCATGGACCGGTTTTCCCGGTAATCCGTATTTGCT (site CGCACATCTAG)	0
CGTACATCATGGACCGGTTTTCCCGGTAATCCGTATTTGCT (site CGGACATCTAG)	0
CGTACATCATGGACCGGTTTTCCCGGTAATCCGTATTTGCT (site CGTACATCTAG)	1.39
CGTACCACATGGACCGGTTTTCCCGGTAATCCGTATTTGAG (site CGTACCACTCT)	1.06
CGTAGAACATGGACCGGTTTTCCCGGTAATCCGTATTTGCC (site CGTAGAACTGG)	2.75
CGTATGGCATGGACCGGTTTTCCCGGTAATCCGTATTTGCT (site CGTATGGCTAG)	0.895
CGTATGGCATGGACCGGTTTTCCCGGTAATCCGTATTTGCT (site CGTCTGGCTAG)	0
CGTATGGCATGGACCGGTTTTCCCGGTAATCCGTATTTGCT (site CGTGTGGCTAG)	0.0109
CGTATGGCATGGACCGGTTTTCCCGGTAATCCGTATTTGCT (site CGTTTGGCTAG)	0
CGTCTATCATGGACCGGTTTTCCCGGTAATCCGTATTTGCC (site CGTCTATCTGG)	2.64

Sequence	recombinant UMI read abundance (log10)
CGTCTGACATGGACCGGTTTTCCCGGTAATCCGTATTTGAC (site CGTCTGACTGT)	0.908
CGTCTGGCATGGACCGGTTTTCCCGGTAATCCGTATTTGCT (site CGTATGGCTAG)	0
CGTCTGGCATGGACCGGTTTTCCCGGTAATCCGTATTTGCT (site CGTCTGGCTAG)	0.46
CGTCTGGCATGGACCGGTTTTCCCGGTAATCCGTATTTGCT (site CGTGTGGCTAG)	0.00552
CGTCTGGCATGGACCGGTTTTCCCGGTAATCCGTATTTGCT (site CGTTTGGCTAG)	0
CGTCTTCCATGGACCGGTTTTCCCGGTAATCCGTATTTGTC (site CGTCTTCCTGA)	1.19
CGTGAGACATGGACCGGTTTTCCCGGTAATCCGTATTTGAG (site CGTAAGACTCT)	2.08
CGTGAGACATGGACCGGTTTTCCCGGTAATCCGTATTTGAG (site CGTCAGACTCT)	0.00623
CGTGAGACATGGACCGGTTTTCCCGGTAATCCGTATTTGAG (site CGTGAGACTCT)	2.08
CGTGAGACATGGACCGGTTTTCCCGGTAATCCGTATTTGAG (site CGTTAGACTCT)	0.167
CGTGCCTCATGGACCGGTTTTCCCGGTAATCCGTATTTGTC (site CGTGCCTCTGA)	2.03
CGTGGAACATGGACCGGTTTTCCCGGTAATCCGTATTTGTC (site CGTGGAACTAA)	0
CGTGGAACATGGACCGGTTTTCCCGGTAATCCGTATTTGTC (site CGTGGAACTCA)	0.0117
CGTGGAACATGGACCGGTTTTCCCGGTAATCCGTATTTGTC (site CGTGGAACTGA)	1.94
CGTGGAACATGGACCGGTTTTCCCGGTAATCCGTATTTGTC (site CGTGGAACTTA)	0.519
CGTGGACCATGGACCGGTTTTCCCGGTAATCCGTATTTGTT (site CGTGGAACTAA)	0.00973
CGTGGACCATGGACCGGTTTTCCCGGTAATCCGTATTTGTT (site CGTGGACCTAA)	0.0211
CGTGGACCATGGACCGGTTTTCCCGGTAATCCGTATTTGTT (site CGTGGAGCTAA)	0.0186
CGTGGACCATGGACCGGTTTTCCCGGTAATCCGTATTTGTT (site CGTGGATCTAA)	0.722
CGTGTATCATGGACCGGTTTTCCCGGTAATCCGTATTTGAC (site CGTGTATCTGT)	1.26
CGTGTATCATGGACCGGTTTTCCCGGTAATCCGTATTTGAC (site CTAGTATCTGT)	0
CGTTAAGCATGGACCGGTTTTCCCGGTAATCCGTATTTGAA (site CGTTAAGCTTT)	2
CGTTACACATGGACCGGTTTTCCCGGTAATCCGTATTTGAG (site CGTTAAACTCT)	0.00268

Sequence	recombinant UMI read abundance (log10)
CGTTACACATGGACCGGTTTTCCCGGTAATCCGTATTTGAG (site CGTTACACTCT)	1.43
CGTTACACATGGACCGGTTTTCCCGGTAATCCGTATTTGAG (site CGTTAGACTCT)	0.0129
CGTTACACATGGACCGGTTTTCCCGGTAATCCGTATTTGAG (site CGTTATACTCT)	0.202
CGTTAGACATGGACCGGTTTTCCCGGTAATCCGTATTTGAC (site CGTTAGACTAT)	0.0518
CGTTAGACATGGACCGGTTTTCCCGGTAATCCGTATTTGAC (site CGTTAGACTCT)	0.0193
CGTTAGACATGGACCGGTTTTCCCGGTAATCCGTATTTGAC (site CGTTAGACTGT)	1.58
CGTTAGACATGGACCGGTTTTCCCGGTAATCCGTATTTGAC (site CGTTAGACTTT)	0.0068
CGTTAGACATGGACCGGTTTTCCCGGTAATCCGTATTTGAG (site AGTTAGACTCT)	0.0858
CGTTAGACATGGACCGGTTTTCCCGGTAATCCGTATTTGAG (site CATTAGACTCT)	0.498
CGTTAGACATGGACCGGTTTTCCCGGTAATCCGTATTTGAG (site CCTTAGACTCT)	0.0362
CGTTAGACATGGACCGGTTTTCCCGGTAATCCGTATTTGAG (site CGATAGACTCT)	0.838
CGTTAGACATGGACCGGTTTTCCCGGTAATCCGTATTTGAG (site CGCTAGACTCT)	0.501
CGTTAGACATGGACCGGTTTTCCCGGTAATCCGTATTTGAG (site CGGTAGACTCT)	0.157
CGTTAGACATGGACCGGTTTTCCCGGTAATCCGTATTTGAG (site CGTAAGACTCT)	0
CGTTAGACATGGACCGGTTTTCCCGGTAATCCGTATTTGAG (site CGTCAGACTCT)	0.944
CGTTAGACATGGACCGGTTTTCCCGGTAATCCGTATTTGAG (site CGTGAGACTCT)	0.0124
CGTTAGACATGGACCGGTTTTCCCGGTAATCCGTATTTGAG (site CGTTAAACTCT)	0.893
CGTTAGACATGGACCGGTTTTCCCGGTAATCCGTATTTGAG (site CGTTACACTCT)	0.00825
CGTTAGACATGGACCGGTTTTCCCGGTAATCCGTATTTGAG (site CGTTAGACTAT)	1.08
CGTTAGACATGGACCGGTTTTCCCGGTAATCCGTATTTGAG (site CGTTAGACTCA)	0.0196
CGTTAGACATGGACCGGTTTTCCCGGTAATCCGTATTTGAG (site CGTTAGACTCC)	0.374
CGTTAGACATGGACCGGTTTTCCCGGTAATCCGTATTTGAG (site CGTTAGACTCG)	0
